Data from publication PMC5433425 (PeerJ, 2017).
Several values for one entry are separate records, joined by “and”; a condition that tells them apart may be missing. Equal values may be shown once. Read-outs that look alike come from different tables or passages of the source.

Key:
E. coli AG100 [1] = assay: Membrane potential assay (BacLight, DiOC2(3))
[2] = tested on: E. coli AG100A (AcrAB pump-deficient); assay: MIC, broth microdilution; type: cell-based, Escherichia coli
E. coli AG100A = settings: EtBr […] + inhibitor 20 µM
E. coli AG100 [3] = assay: Checkerboard synergy assay (MIC of antibiotics/EtBr with efflux inhibitor); type: cell-based, Escherichia coli; settings: AG100
Description: (§1) The assays were performed in triplicate and the MIC value was given as result of at least two concordant values.

E. coli AG100 [4] = assay: EtBr accumulation by real-time fluorometry; settings: EtBr 1 µg/ml + inhibitor 80 µM
E. coli AG100tet [5] = assay: EtBr accumulation by real-time fluorometry; settings: EtBr 2 µg/ml + inhibitor 80 µM
E. coli AG100tet [6] = assay: microbe, parasite or virus in culture; type: cell-based, Escherichia coli; settings: AG100tet
Description: as §1

Compound: CCCOc1ccc(-c2cc(OCCN3CCNCC3)c3ccccc3n2)cc1 [PQQ4R, 4-(2-(piperazin-1-yl)ethoxy)-2-(4-propoxyphenyl) quinolone]
- membrane depolarization (E. coli AG100 [1]; 80 µM): 83%
- membrane depolarization (E. coli AG100 [1]; 160 μM (1/4 MIC)): 85%
- membrane depolarization (E. coli AG100 [1]; 320 μM (1/2 MIC)): 89%
- membrane depolarization (E. coli AG100 [1]; 640 μM (MIC)): 91%
- MIC decrease against AG100A compared with wild-type parental strain ([2]; AG100A vs AG100): 8 fold
- MIC ([2]; E. coli AG100A): 32 μg/ml and 81.7 μM
- EtBr fluorescence (E. coli AG100A; cycle 1): 3.005
- EtBr fluorescence (E. coli AG100A; cycle 2): 3.689
- EtBr fluorescence (E. coli AG100A; cycle 3): 4.425
- EtBr fluorescence (E. coli AG100A; cycle 4): 5.09
- EtBr fluorescence (E. coli AG100A; cycle 5): 5.663
- EtBr fluorescence (E. coli AG100A; cycle 6): 6.261
- EtBr fluorescence (E. coli AG100A; cycle 7): 6.784
- EtBr fluorescence (E. coli AG100A; cycle 8): 7.347
- EtBr fluorescence (E. coli AG100A; cycle 9): 7.957
- EtBr fluorescence (E. coli AG100A; cycle 10): 8.552
- EtBr fluorescence (E. coli AG100A; cycle 11): 9.107
- EtBr fluorescence (E. coli AG100A; cycle 12): 9.505
- EtBr fluorescence (E. coli AG100A; cycle 13): 10.1469
- EtBr fluorescence (E. coli AG100A; cycle 14): 10.666
- EtBr fluorescence (E. coli AG100A; cycle 15): 11.2994
- EtBr fluorescence (E. coli AG100A; cycle 16): 11.7134
- EtBr fluorescence (E. coli AG100A; cycle 17): 12.3988
- EtBr fluorescence (E. coli AG100A; cycle 18): 12.7522
- EtBr fluorescence (E. coli AG100A; cycle 19): 13.174
- EtBr fluorescence (E. coli AG100A; cycle 20): 13.8181
- EtBr fluorescence (E. coli AG100A; cycle 21): 14.2909
- EtBr fluorescence (E. coli AG100A; cycle 22): 14.7163
- EtBr fluorescence (E. coli AG100A; cycle 23): 15.2505
- EtBr fluorescence (E. coli AG100A; cycle 24): 16.0503
- EtBr fluorescence (E. coli AG100A; cycle 25): 16.1642
- EtBr fluorescence (E. coli AG100A; cycle 26): 16.8061
- EtBr fluorescence (E. coli AG100A; cycle 27): 17.3806
- EtBr fluorescence (E. coli AG100A; cycle 28): 17.8352
- EtBr fluorescence (E. coli AG100A; cycle 29): 18.1109
- EtBr fluorescence (E. coli AG100A; cycle 30): 18.6334
- MIC of EtBr in presence of the efflux inhibitor (E. coli AG100 [3]; inhibitor 40 μM): 200 mg/L
- MIC of OFX in presence of the efflux inhibitor (E. coli AG100 [3]; inhibitor 40 μM): 0.125 mg/L
- MIC of OXA in presence of the efflux inhibitor (E. coli AG100 [3]; inhibitor 40 μM): 512 mg/L
- MIC of TET in presence of the efflux inhibitor (E. coli AG100 [3]; inhibitor 40 μM): 1 mg/L
- MIC of EtBr in presence of the efflux inhibitor (E. coli AG100 [3]; inhibitor 80 μM): 100 mg/L
- MIC of OFX in presence of the efflux inhibitor (E. coli AG100 [3]; inhibitor 80 μM): 0.125 mg/L
- MIC of OXA in presence of the efflux inhibitor (E. coli AG100 [3]; inhibitor 80 μM): 512 mg/L
- MIC of TET in presence of the efflux inhibitor (E. coli AG100 [3]; inhibitor 80 μM): 1 mg/L
- reduction in EtBr MIC (E. coli AG100 [3]; inhibitor 80 μM): 2 fold
- MIC of EtBr in presence of the efflux inhibitor (E. coli AG100 [3]; inhibitor 160 μM): 50 mg/L
- MIC of OFX in presence of the efflux inhibitor (E. coli AG100 [3]; inhibitor 160 μM): 0.125 mg/L
- MIC of OXA in presence of the efflux inhibitor (E. coli AG100 [3]; inhibitor 160 μM): 512 mg/L
- MIC of TET in presence of the efflux inhibitor (E. coli AG100 [3]; inhibitor 160 μM): 1 mg/L
- reduction in EtBr MIC (E. coli AG100 [3]; inhibitor 160 μM): 4 fold
- effect on OXA MIC (E. coli AG100 [3]; inhibitor 40 to 160 µM): no effect
- reduction in OFX MIC (E. coli AG100 [3]; inhibitor 40 to 160 µM): 2 fold
- reduction in TET MIC (E. coli AG100 [3]; inhibitor 40 to 160 µM): 2 fold
- EtBr fluorescence (E. coli AG100 [4]; cycle 1): 8.891
- EtBr fluorescence (E. coli AG100 [4]; cycle 2): 15.958
- EtBr fluorescence (E. coli AG100 [4]; cycle 3): 24.4435
- EtBr fluorescence (E. coli AG100 [4]; cycle 4): 32.9586
- EtBr fluorescence (E. coli AG100 [4]; cycle 5): 42.0049
- EtBr fluorescence (E. coli AG100 [4]; cycle 6): 50.7014
- EtBr fluorescence (E. coli AG100 [4]; cycle 7): 59.8624
- EtBr fluorescence (E. coli AG100 [4]; cycle 8): 68.0874
- EtBr fluorescence (E. coli AG100 [4]; cycle 9): 75.8019
- EtBr fluorescence (E. coli AG100 [4]; cycle 10): 82.5362
- EtBr fluorescence (E. coli AG100 [4]; cycle 11): 89.2
- EtBr fluorescence (E. coli AG100 [4]; cycle 12): 95.2197
- EtBr fluorescence (E. coli AG100 [4]; cycle 13): 100
- EtBr fluorescence (E. coli AG100 [4]; cycle 14): 100
- EtBr fluorescence (E. coli AG100 [4]; cycle 15): 100
- EtBr fluorescence (E. coli AG100 [4]; cycle 16): 100
- EtBr fluorescence (E. coli AG100 [4]; cycle 17): 100
- EtBr fluorescence (E. coli AG100 [4]; cycle 18): 100
- EtBr fluorescence (E. coli AG100 [4]; cycle 19): 100
- EtBr fluorescence (E. coli AG100 [4]; cycle 20): 100
- EtBr fluorescence (E. coli AG100 [4]; cycle 21): 100
- EtBr fluorescence (E. coli AG100 [4]; cycle 22): 100
- EtBr fluorescence (E. coli AG100 [4]; cycle 23): 100
- EtBr fluorescence (E. coli AG100 [4]; cycle 24): 100
- EtBr fluorescence (E. coli AG100 [4]; cycle 25): 100
- EtBr fluorescence (E. coli AG100 [4]; cycle 26): 100
- EtBr fluorescence (E. coli AG100 [4]; cycle 27): 100
- EtBr fluorescence (E. coli AG100 [4]; cycle 28): 100
- EtBr fluorescence (E. coli AG100 [4]; cycle 29): 100
- EtBr fluorescence (E. coli AG100 [4]; cycle 30): 100
- EtBr fluorescence (E. coli AG100tet [5]; cycle 1): 9.875
- EtBr fluorescence (E. coli AG100tet [5]; cycle 2): 10.6846
- EtBr fluorescence (E. coli AG100tet [5]; cycle 3): 11.6019
- EtBr fluorescence (E. coli AG100tet [5]; cycle 4): 12.4491
- EtBr fluorescence (E. coli AG100tet [5]; cycle 5): 13.6501
- EtBr fluorescence (E. coli AG100tet [5]; cycle 6): 14.6495
- EtBr fluorescence (E. coli AG100tet [5]; cycle 7): 15.6732
- EtBr fluorescence (E. coli AG100tet [5]; cycle 8): 16.6247
- EtBr fluorescence (E. coli AG100tet [5]; cycle 9): 17.8761
- EtBr fluorescence (E. coli AG100tet [5]; cycle 10): 18.9066
- EtBr fluorescence (E. coli AG100tet [5]; cycle 11): 20.4282
- EtBr fluorescence (E. coli AG100tet [5]; cycle 12): 21.7393
- EtBr fluorescence (E. coli AG100tet [5]; cycle 13): 23.4754
- EtBr fluorescence (E. coli AG100tet [5]; cycle 14): 25.1013
- EtBr fluorescence (E. coli AG100tet [5]; cycle 15): 27.2614
- EtBr fluorescence (E. coli AG100tet [5]; cycle 16): 29.2172
- EtBr fluorescence (E. coli AG100tet [5]; cycle 17): 32.322
- EtBr fluorescence (E. coli AG100tet [5]; cycle 18): 34.6681
- EtBr fluorescence (E. coli AG100tet [5]; cycle 19): 38.0364
- EtBr fluorescence (E. coli AG100tet [5]; cycle 20): 40.8691
- EtBr fluorescence (E. coli AG100tet [5]; cycle 21): 44.3636
- EtBr fluorescence (E. coli AG100tet [5]; cycle 22): 47.9426
- EtBr fluorescence (E. coli AG100tet [5]; cycle 23): 51.4641
- EtBr fluorescence (E. coli AG100tet [5]; cycle 24): 55.2307
- EtBr fluorescence (E. coli AG100tet [5]; cycle 25): 58.9315
- EtBr fluorescence (E. coli AG100tet [5]; cycle 26): 63.4348
- EtBr fluorescence (E. coli AG100tet [5]; cycle 27): 67.7728
- EtBr fluorescence (E. coli AG100tet [5]; cycle 28): 71.5821
- EtBr fluorescence (E. coli AG100tet [5]; cycle 29): 76.2698
- EtBr fluorescence (E. coli AG100tet [5]; cycle 30): 79.495
- MIC of EtBr in presence of the efflux inhibitor (E. coli AG100tet [6]; inhibitor 40 μM): 512 mg/L
- MIC of OFX in presence of the efflux inhibitor (E. coli AG100tet [6]; inhibitor 40 μM): 0.5 mg/L
- MIC of OXA in presence of the efflux inhibitor (E. coli AG100tet [6]; inhibitor 40 μM): >2,048 μg/ml
- MIC of TET in presence of the efflux inhibitor (E. coli AG100tet [6]; inhibitor 40 μM): 16 mg/L
- MIC of EtBr in presence of the efflux inhibitor (E. coli AG100tet [6]; inhibitor 80 μM): 512 mg/L
- MIC of OFX in presence of the efflux inhibitor (E. coli AG100tet [6]; inhibitor 80 μM): 0.25 mg/L
- MIC of OXA in presence of the efflux inhibitor (E. coli AG100tet [6]; inhibitor 80 μM): 2,048 μg/ml
- MIC of TET in presence of the efflux inhibitor (E. coli AG100tet [6]; inhibitor 80 μM): 16 mg/L
- MIC of EtBr in presence of the efflux inhibitor (E. coli AG100tet [6]; inhibitor 160 μM): 512 mg/L
- MIC of OFX in presence of the efflux inhibitor (E. coli AG100tet [6]; inhibitor 160 μM): 0.25 mg/L
- MIC of OXA in presence of the efflux inhibitor (E. coli AG100tet [6]; inhibitor 160 μM): 2,048 μg/ml
- MIC of TET in presence of the efflux inhibitor (E. coli AG100tet [6]; inhibitor 160 μM): 16 mg/L
- decrease in OFX MIC (E. coli AG100tet [6]; inhibitor 80 and 160 µM): 4 fold
- decrease in TET MIC (E. coli AG100tet [6]; inhibitor 80 and 160 µM): 4 fold
